According to publication PMC10746543, “Design principles for cyclin K molecular glue degraders” (Nature Chemical Biology, 2023):
“And” between values parts separate entries of the source, which are not always exact repeats. Identical values can stand only once. Like-named read-outs stand apart in the source and are kept apart here.

Assays:
CDK2–cyclin A = target: T1, CDK2–cyclin A (Homo sapiens, UniProt P24941); experiment: Lanthascreen kinase binding assay, CDK2
T1 construct: purchased Thermo Fisher
Description: Lanthascreen experiments were performed using commercially available reagents (Thermo Fisher) and according to the manufacturer’s instructions.

CDK12–cyclin K and DDB1 = target: T2, CDK12–cyclin K and DDB1 (Homo sapiens, UniProt Q16531+Q9NYV4, K965R); experiment: TR-FRET ternary complex formation assay (compound titration); type: binding; details: for EC50: read-out: TR-FRET EC50
T2 construct: His6–CDK12 (a.a. 713–1,052); full-length or beta-propeller B domain deletion (ΔBPB: a.a. 396–705 deleted) constructs of His6–DDB1ΔBPB, StrepII–Avi–DDB1, or His6–Spy–DDB1; made in house; host or cells: Trichoplusia ni High Five insect cells (baculovirus)
How it was run: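 TR-FRET ratio 520/490 nm; 70 μs delay before read to suppress background.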

T2 sequence (Q9NYV4 713-1052 K965R): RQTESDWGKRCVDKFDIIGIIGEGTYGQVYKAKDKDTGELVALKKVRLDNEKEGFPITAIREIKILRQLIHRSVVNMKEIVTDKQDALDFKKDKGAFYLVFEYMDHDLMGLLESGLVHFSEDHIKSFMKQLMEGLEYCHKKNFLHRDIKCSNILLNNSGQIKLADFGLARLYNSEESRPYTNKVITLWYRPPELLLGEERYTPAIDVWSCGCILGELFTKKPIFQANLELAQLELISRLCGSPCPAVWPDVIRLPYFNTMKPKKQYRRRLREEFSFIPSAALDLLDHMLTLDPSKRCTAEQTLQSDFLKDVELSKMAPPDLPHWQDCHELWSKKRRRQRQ
T2 sequence (O75909 1-267 partner): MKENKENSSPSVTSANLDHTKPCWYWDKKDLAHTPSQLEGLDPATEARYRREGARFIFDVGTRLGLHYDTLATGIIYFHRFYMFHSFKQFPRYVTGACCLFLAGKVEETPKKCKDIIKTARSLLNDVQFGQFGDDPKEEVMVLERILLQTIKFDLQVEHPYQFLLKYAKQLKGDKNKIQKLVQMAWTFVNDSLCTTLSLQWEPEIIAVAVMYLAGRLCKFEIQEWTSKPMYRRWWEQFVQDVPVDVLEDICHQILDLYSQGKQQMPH
T2 sequence (Q16531 whole entry): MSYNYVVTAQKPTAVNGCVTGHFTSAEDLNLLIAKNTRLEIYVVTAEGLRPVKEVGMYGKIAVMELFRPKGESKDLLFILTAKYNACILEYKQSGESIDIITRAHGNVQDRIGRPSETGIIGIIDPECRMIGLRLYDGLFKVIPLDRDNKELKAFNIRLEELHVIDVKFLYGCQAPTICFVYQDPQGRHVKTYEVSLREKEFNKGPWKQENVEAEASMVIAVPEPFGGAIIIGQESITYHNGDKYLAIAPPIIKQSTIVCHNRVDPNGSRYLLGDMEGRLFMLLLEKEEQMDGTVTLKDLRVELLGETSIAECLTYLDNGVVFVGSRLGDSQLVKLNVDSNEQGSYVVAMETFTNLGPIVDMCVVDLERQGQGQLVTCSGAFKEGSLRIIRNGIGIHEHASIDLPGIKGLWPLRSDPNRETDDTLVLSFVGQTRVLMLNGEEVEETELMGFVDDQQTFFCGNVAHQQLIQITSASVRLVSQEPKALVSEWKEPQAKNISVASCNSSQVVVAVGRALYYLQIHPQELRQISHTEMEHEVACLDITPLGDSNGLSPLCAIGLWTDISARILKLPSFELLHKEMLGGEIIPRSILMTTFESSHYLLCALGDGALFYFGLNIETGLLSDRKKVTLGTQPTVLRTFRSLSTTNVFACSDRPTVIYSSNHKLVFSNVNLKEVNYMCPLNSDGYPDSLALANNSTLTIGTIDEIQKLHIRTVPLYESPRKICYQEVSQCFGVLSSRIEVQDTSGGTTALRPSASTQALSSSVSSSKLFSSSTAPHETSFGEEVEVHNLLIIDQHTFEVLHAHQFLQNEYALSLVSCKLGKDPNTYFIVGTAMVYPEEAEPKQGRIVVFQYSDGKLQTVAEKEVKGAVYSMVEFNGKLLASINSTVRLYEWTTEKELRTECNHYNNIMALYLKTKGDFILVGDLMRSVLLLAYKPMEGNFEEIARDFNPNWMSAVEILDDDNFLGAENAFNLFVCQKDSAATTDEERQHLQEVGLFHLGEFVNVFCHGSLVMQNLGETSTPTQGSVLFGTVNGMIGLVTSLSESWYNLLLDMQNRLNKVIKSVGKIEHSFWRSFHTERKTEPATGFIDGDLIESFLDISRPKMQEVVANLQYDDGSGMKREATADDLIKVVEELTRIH

Lanthascreen signal, sheet CDK2 (CDK2–cyclin A; Compound 1.02544 nM, raw replicates, experiment r1-r11): 0.01165 and 0.01109
Lanthascreen signal, sheet CDK2 (CDK2–cyclin A; Compound 3.15521 nM, raw replicates, experiment r1-r11): 0.008478 and 0.00993
Lanthascreen signal, sheet CDK2 (CDK2–cyclin A; Compound 4.57247 nM, experiment r25-r34): 0.01637
Lanthascreen signal, sheet CDK2 (CDK2–cyclin A; Compound 9.46563 nM, raw replicates, experiment r1-r11): 0.009994 and 0.009998
Lanthascreen signal, sheet CDK2 (CDK2–cyclin A; Compound 13.7174 nM, experiment r25-r34): 0.01615
Lanthascreen signal, sheet CDK2 (CDK2–cyclin A; Compound 31.5521 nM, raw replicates, experiment r1-r11): 0.01039 and 0.01091
Lanthascreen signal, sheet CDK2 (CDK2–cyclin A; Compound 41.1523 nM, experiment r25-r34): 0.01569
Lanthascreen signal, sheet CDK2 (CDK2–cyclin A; Compound 99.3891 nM, raw replicates, experiment r1-r11): 0.0115 and 0.01029
Lanthascreen signal, sheet CDK2 (CDK2–cyclin A; Compound 123.457 nM, experiment r25-r34): 0.01519
Lanthascreen signal, sheet CDK2 (CDK2–cyclin A; Compound 315.521 nM, raw replicates, experiment r1-r11): 0.008046 and 0.01008
Lanthascreen signal, sheet CDK2 (CDK2–cyclin A; Compound 370.37 nM, experiment r25-r34): 0.01387
Lanthascreen signal, sheet CDK2 (CDK2–cyclin A; Compound 3155.21 nM, raw replicates, experiment r1-r11): 0.007483 and 0.007205
Lanthascreen signal, sheet CDK2 (CDK2–cyclin A; Compound 3333.33 nM, experiment r25-r34): 0.009102
Lanthascreen signal, sheet CDK2 (CDK2–cyclin A; Compound 10000 nM, experiment r25-r34): 0.006383
Lanthascreen signal, sheet CDK2 (CDK2–cyclin A; Compound 10002 nM, raw replicates, experiment r1-r11): 0.003415 and 0.004039
IC50 (CDK2–cyclin A; Supplementary Table 2, read-out: Lanthascreen IC50 [nM] CDK2): 6120 nM
TR-FRET signal at compound concentration 0.468 nM (CDK12–cyclin K and DDB1; compound concentration 0.468 nM, raw replicate titration data): 0.2078 and 0.3464 and 0.3268 and 0.2028
TR-FRET signal at compound concentration 2.16 nM (CDK12–cyclin K and DDB1; compound concentration 2.16 nM, raw replicate titration data): 0.3181 and 0.4574 and 0.408 and 0.306
TR-FRET signal at compound concentration 3.6 nM (CDK12–cyclin K and DDB1; compound concentration 3.6 nM, raw replicate titration data): 0.571 and 0.665 and 0.6145 and 0.5357
TR-FRET signal at compound concentration 7.92001 nM (CDK12–cyclin K and DDB1; compound concentration 7.92001 nM, raw replicate titration data): 1.164 and 1.12 and 0.9555 and 1.048
TR-FRET signal at compound concentration 15.84 nM (CDK12–cyclin K and DDB1; compound concentration 15.84 nM, raw replicate titration data): 2.581 and 2.125 and 1.889 and 2.1704
TR-FRET signal at compound concentration 30.96 nM (CDK12–cyclin K and DDB1; compound concentration 30.96 nM, raw replicate titration data): 3.773 and 3.741 and 3.496 and 3.714
TR-FRET signal at compound concentration 62.6401 nM (CDK12–cyclin K and DDB1; compound concentration 62.6401 nM, raw replicate titration data): 3.949 and 4.21 and 4.046 and 3.965
TR-FRET signal at compound concentration 125.28 nM (CDK12–cyclin K and DDB1; compound concentration 125.28 nM, raw replicate titration data): 3.981 and 4.358 and 4.135 and 3.99
TR-FRET signal at compound concentration 244.8 nM (CDK12–cyclin K and DDB1; compound concentration 244.8 nM, raw replicate titration data): 3.942 and 4.1851 and 4.076 and 4.006
TR-FRET signal at compound concentration 993.601 nM (CDK12–cyclin K and DDB1; compound concentration 993.601 nM, raw replicate titration data): 4.043 and 4.296 and 4.229 and 3.955
TR-FRET signal at compound concentration 2001.6 nM (CDK12–cyclin K and DDB1; compound concentration 2001.6 nM, raw replicate titration data): 4.148 and 4.166 and 4.035 and 3.981
EC50 (CDK12–cyclin K and DDB1; in vitro complex formation, 50 nM CDK12–cyclin K, 100 nM DDB1, text and figures): 15 ± 1 nM
EC50 (CDK12–cyclin K and DDB1; source data sheet correlations): 15.3 nM
SMILES: Cc1cc2nc(CNc3nc(N4CCN(C)CC4)nc4c(Br)cnn34)[nH]c2cc1C [DS73, reference compound]
